Laboratory results as given in patent US12679878B2, “CRF2 receptor agonists and their use in therapy” (SANOFI, priority 2020, dated 2026).
Like-named read-outs stand apart in the source and are kept apart here. Starred links: 1 amine or outer side, 2 acyl side, 3 side chain; linkers in the order of their positions; H or OH if unused. Non-standard residues stand in square brackets, D forms with d. Residues, ends and D or L forms follow the SMILES beside them. Groups on a side chain read outwards from the residue. *: point of attachment. C16 diacid = O=C(O)CCCCCCCCCCCCCCC(=O)*; γGlu = O=C(O)[C@H](CCC(=O)[*:2])N[*:1]; AEEA = NCCOCCOCC(=O)O; Aib = CC(C)(N)C(=O)O

Assays:
[1] = target: T1, human CRF2α receptor (Homo sapiens, UniProt Q13324); test: cAMP agonism at human CRF2α receptor in TeloHEAC cells, FA modified peptides (Example 19.9); format: cell-based; conditions: 0% HSA, relative to urocortin 2
T1 construct: expressed in transfected cells; host or cells: TeloHEAC
T1 sequence (Q13324 1-411): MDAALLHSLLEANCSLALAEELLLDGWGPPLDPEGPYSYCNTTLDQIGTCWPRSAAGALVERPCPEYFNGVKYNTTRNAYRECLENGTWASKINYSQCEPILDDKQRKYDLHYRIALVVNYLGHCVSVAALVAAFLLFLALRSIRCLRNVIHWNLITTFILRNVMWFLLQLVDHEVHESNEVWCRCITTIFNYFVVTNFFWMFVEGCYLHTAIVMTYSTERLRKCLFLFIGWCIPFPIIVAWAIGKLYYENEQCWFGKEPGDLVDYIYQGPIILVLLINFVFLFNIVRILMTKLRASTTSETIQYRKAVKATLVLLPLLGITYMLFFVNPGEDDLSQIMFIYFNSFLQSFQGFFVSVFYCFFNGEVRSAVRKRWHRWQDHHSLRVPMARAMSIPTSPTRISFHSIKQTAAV
Description: Agonism of compounds for human corticotropin-releasing factor 2α (CRF2α receptor) was determined by a functional assay measuring cAMP modulation upon treatment of TeloHEAC cells stably expressing human CRF2α receptor.
Compounds were dissolved at 0.5 mM in 100% DMSO and serially diluted (1:2) in 100% DMSO for 16 dilutions. 20 nL of each dilution was then transferred to 384-well assay plate using an acoustic droplet ejection instrument. 5 μL of compound buffer (1×HBSS; 20 mM HEPES, 2 mM IBMX, 0% or 0.2% HSA) were then added to each well.
Prior to use, frozen cells were thawed quickly at 37° C. and washed (5 min at 900 rpm) with 20 mL cell buffer (1×HBSS; 20 mM HEPES). Cells were resuspended in cell buffer and adjusted to a cell density of 800.000 cells/ml.
5 μL cells (final dell density: 4000 cells/well) were dispensed in the compound-containing 384-well assay plate and incubated for 30 minutes 37° C.
The CAMP level in treated cells was determined using the Cisbio 62AM4PEC kit according to manufacturer's instruction. Finally, plates were incubated for 1 h at room temperature before measuring the fluorescence ratio between 665/620 nm.
The percent activity value (E %) was calculated by setting 100 nM of urocortin 2 (UCN2) as 100%. The in vitro potency of the compounds was quantified by determining the concentrations that caused 50% activation of maximal response (EC50) relative to urocortin 2.

[2] = target: T2, CRF1R receptor (Homo sapiens, UniProt P34998); test: cAMP activity at anti-target CRF1R, CHO-K1 cell line clone 2 (Example 19.10); format: cell-based; conditions: for Emax: 100% = Sauvagine at 100 nM; for CRF1/CRF2 ratio: ratio of CRF1 EC50 to CRF2 EC50
T2 construct: host or cells: CHO-K1 clone 2
T2 sequence (P34998 24-415): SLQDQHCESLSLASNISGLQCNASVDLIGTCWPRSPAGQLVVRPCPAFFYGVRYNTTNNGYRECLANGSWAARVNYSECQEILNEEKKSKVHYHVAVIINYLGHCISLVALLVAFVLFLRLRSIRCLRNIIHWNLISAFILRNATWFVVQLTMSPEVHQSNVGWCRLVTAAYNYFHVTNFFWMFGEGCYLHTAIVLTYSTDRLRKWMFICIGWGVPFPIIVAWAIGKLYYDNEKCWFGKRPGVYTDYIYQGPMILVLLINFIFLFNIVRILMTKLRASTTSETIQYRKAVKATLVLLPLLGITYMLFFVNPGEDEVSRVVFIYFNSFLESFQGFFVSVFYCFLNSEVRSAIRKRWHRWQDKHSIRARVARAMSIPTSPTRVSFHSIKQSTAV
Outline: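 The cAMP read-out used the same protocol as the previous assay, except that Sauvagine at 100 nM set the 100% activation control. Cells were CHO-K1 clone 2 overexpressing CRF1R, cultured in F12 medium with 10% FBS and G418 and stored frozen until use.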

[3] = 0% HSA, CRF1R CHO-K1 clone 2, read-out: EC50 [nM] 0% HSA
[4] = Table 20 side-to-side comparison, read-out: CRF1 EC50

Compound	EC50 [1] [nM]	EC50 [2, 3] [nM]	Emax ([2]; CRF1R CHO-K1 clone 2) [%]	EC50 [2, 4] [nM]	CRF1/CRF2 ratio [2]
CC[C@H](C)[C@H](N)C(=O)N[C@H](C(=O)N[C@@H](CC(C)C)C(=O)N[C@@H](CO)C(=O)N[C@@H](CC(C)C)C(=O)N[C@@H](CC(=O)O)C(=O)N[C@@H](C(=O)N1CCC[C@H]1C(=O)N[C@H](C(=O)NCC(=O)N[C@@H](CC(C)C)C(=O)N[C@@H](CCCCNC(=O)CC[C@H](NC(=O)CCCCCCCCCCCCCCC(=O)O)C(=O)O)C(=O)N[C@@H](CCC(N)=O)C(=O)N[C@H](C(=O)N[C@@H](CC(C)C)C(=O)N[C@@H](CC(C)C)C(=O)N[C@@H](CCCCN)C(=O)N[C@@H](CCC(N)=O)C(=O)N[C@@H](CCC(=O)O)C(=O)N[C@@H](CCCNC(=N)N)C(=O)N[C@@H](CCC(N)=O)C(=O)N[C@@H](CCCCN)C(=O)N[C@@H](CCCCN)C(=O)NC(C)(C)C(=O)N[C@@H](CCCNC(=N)N)C(=O)N[C@@H](CCC(N)=O)C(=O)N[C@@H](CCC(N)=O)C(=O)N[C@@H](C)C(=O)N[C@@H](CCC(=O)O)C(=O)N[C@H](C(=O)N[C@@H](CC(N)=O)C(=O)N[C@@H](CCCCN)C(=O)N[C@@H](CCCNC(=N)N)C(=O)N[C@H](C(=O)N[C@@H](CC(C)C)C(=O)N[C@@H](CCC(=O)O)C(=O)N[C@@H](CCCNC(=N)N)C(=O)N[C@H](C(N)=O)C(C)C)[C@@H](C)CC)[C@@H](C)O)[C@@H](C)CC)[C@@H](C)CC)C(C)C)C(C)C [compound 195] (H-IVLSLD[dV]PIGLK([γGlu-C16 diacid])QILLKQERQKK[Aib]RQQAETNKRILERV-NH2)	0.34	> 100	17.1	> 100	>500
CC[C@H](C)[C@H](N)C(=O)N[C@H](C(=O)N[C@@H](CC(C)C)C(=O)N[C@@H](CO)C(=O)N[C@@H](CC(C)C)C(=O)N[C@@H](CC(=O)O)C(=O)N[C@@H](C(=O)N1CCC[C@H]1C(=O)N[C@H](C(=O)NCC(=O)N[C@@H](CC(C)C)C(=O)N[C@@H](CCCCNC(=O)CC[C@H](NC(=O)CCCCCCCCCCCCCCC(=O)O)C(=O)O)C(=O)N[C@@H](CCC(N)=O)C(=O)N[C@H](C(=O)N[C@@H](CC(C)C)C(=O)N[C@@H](CC(C)C)C(=O)N[C@@H](CCCCN)C(=O)N[C@@H](CCC(N)=O)C(=O)N[C@@H](CCC(=O)O)C(=O)N[C@@H](CCCNC(=N)N)C(=O)N[C@@H](CCC(N)=O)C(=O)N[C@@H](CCCCN)C(=O)N[C@@H](CCCCN)C(=O)NC(C)(C)C(=O)N[C@@H](CCCNC(=N)N)C(=O)N[C@@H](CCC(=O)O)C(=O)N[C@@H](CCC(N)=O)C(=O)N[C@@H](C)C(=O)N[C@@H](CCC(=O)O)C(=O)N[C@@H](CCCCN)C(=O)N[C@@H](CC(N)=O)C(=O)N[C@@H](CCCCN)C(=O)N[C@@H](CCCNC(=N)N)C(=O)N[C@H](C(=O)N[C@@H](CC(C)C)C(=O)N[C@@H](CCC(=O)O)C(=O)N[C@@H](CCCNC(=N)N)C(=O)N[C@H](C(N)=O)C(C)C)[C@@H](C)CC)[C@@H](C)CC)[C@@H](C)CC)C(C)C)C(C)C [compound 196] (H-IVLSLD[dV]PIGLK([γGlu-C16 diacid])QILLKQERQKK[Aib]REQAEKNKRILERV-NH2; N-terminus assumed)	1.08	> 100	16.9	> 100	>500
CC[C@H](C)[C@H](N)C(=O)N[C@H](C(=O)N[C@@H](CC(C)C)C(=O)N[C@@H](CO)C(=O)N[C@@H](CC(C)C)C(=O)N[C@@H](CC(=O)O)C(=O)N[C@@H](C(=O)N1CCC[C@H]1C(=O)N[C@H](C(=O)N[C@@H](CCCCN)C(=O)N[C@@H](CC(C)C)C(=O)N[C@@H](CCCCNC(=O)CC[C@H](NC(=O)CCCCCCCCCCCCCCC(=O)O)C(=O)O)C(=O)N[C@@H](CCC(N)=O)C(=O)N[C@H](C(=O)N[C@@H](CC(C)C)C(=O)N[C@@H](CC(C)C)C(=O)N[C@@H](CCCCN)C(=O)N[C@@H](CCC(N)=O)C(=O)N[C@@H](C)C(=O)N[C@@H](CCCNC(=N)N)C(=O)N[C@@H](CCC(N)=O)C(=O)N[C@@H](CCCCN)C(=O)NC(C)(C)C(=O)N[C@@H](CCC(N)=O)C(=O)N[C@@H](CCCNC(=N)N)C(=O)N[C@@H](C)C(=O)N[C@@H](CCC(N)=O)C(=O)N[C@@H](C)C(=O)N[C@@H](CCC(=O)O)C(=O)N[C@@H](CCCCN)C(=O)N[C@@H](CC(N)=O)C(=O)N[C@@H](CCCCN)C(=O)N[C@@H](CCCNC(=N)N)C(=O)N[C@H](C(=O)N[C@@H](CC(C)C)C(=O)N[C@@H](CCC(=O)O)C(=O)N[C@@H](CCCNC(=N)N)C(=O)N[C@H](C(N)=O)C(C)C)[C@@H](C)CC)[C@@H](C)CC)[C@@H](C)CC)C(C)C)C(C)C [compound 197] (H-IVLSLD[dV]PIKLK([γGlu-C16 diacid])QILLKQARQK[Aib]QRAQAEKNKRILERV-NH2; N-terminus assumed)	2.27	> 100	24.4	> 100	>500
CC[C@H](C)[C@H](N)C(=O)N[C@H](C(=O)N[C@@H](CC(C)C)C(=O)N[C@@H](CO)C(=O)N[C@@H](CC(C)C)C(=O)N[C@@H](CC(=O)O)C(=O)N[C@@H](C(=O)N1CCC[C@H]1C(=O)N[C@H](C(=O)N[C@@H](CCCCN)C(=O)N[C@@H](CC(C)C)C(=O)N[C@@H](CCCCNC(=O)COCCOCCNC(=O)COCCOCCNC(=O)CC[C@H](NC(=O)CCCCCCCCCCCCCCC(=O)O)C(=O)O)C(=O)N[C@@H](CCC(N)=O)C(=O)N[C@H](C(=O)N[C@@H](CC(C)C)C(=O)N[C@@H](CC(C)C)C(=O)N[C@@H](CCCCN)C(=O)N[C@@H](CCC(N)=O)C(=O)N[C@@H](CCC(=O)O)C(=O)N[C@@H](CCCNC(=N)N)C(=O)N[C@@H](CCC(N)=O)C(=O)N[C@@H](CCCCN)C(=O)NC(C)(C)C(=O)N[C@@H](CCC(N)=O)C(=O)N[C@@H](CCCNC(=N)N)C(=O)N[C@@H](CCC(=O)O)C(=O)N[C@@H](CCC(N)=O)C(=O)N[C@@H](C)C(=O)N[C@@H](CCC(=O)O)C(=O)N[C@@H](CCCCN)C(=O)N[C@@H](CC(N)=O)C(=O)N[C@@H](CCCCN)C(=O)N[C@@H](CCC(N)=O)C(=O)N[C@H](C(=O)N[C@@H](CC(C)C)C(=O)N[C@@H](C)C(=O)N[C@@H](CCC(N)=O)C(=O)N[C@H](C(N)=O)C(C)C)[C@@H](C)CC)[C@@H](C)CC)[C@@H](C)CC)C(C)C)C(C)C [compound 198] (H-IVLSLD[dV]PIKLK([AEEA-AEEA-γGlu-C16 diacid])QILLKQERQK[Aib]QREQAEKNKQILAQV-NH2; N-terminus assumed)	0.49	> 100	1.4		
